Results taken from PubChem BioAssay (NCI).
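Here, GI50 denotes the concentration required for 50% inhibition of growth. TGI is the concentration that stops growth completely.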

Key:
Assay in all cases: NCI anticancer screen, dose series, 384-well format
CCRF-CEM leukemia = system: CCRF-CEM leukemia
MDA-MB-435 melanoma = system: MDA-MB-435 melanoma
COLO 205 colon = system: COLO 205 colon
NCI-H322M lung = system: NCI-H322M lung
UACC-257 melanoma = system: UACC-257 melanoma
NCI-H522 lung = system: NCI-H522 lung
SK-MEL-2 melanoma = system: SK-MEL-2 melanoma
NCI/ADR-RES ovarian = system: NCI/ADR-RES ovarian
KM12 colon = system: KM12 colon
MDA-MB-468 breast = system: MDA-MB-468 breast
T-47D breast = system: T-47D breast
SR leukemia = system: SR leukemia
HOP-92 NSCLC = system: HOP-92 NSCLC
UO-31 renal = system: UO-31 renal
NCI-H226 lung = system: NCI-H226 lung
SNB-75 CNS = system: SNB-75 CNS
HS 578T breast = system: HS 578T breast
ACHN renal = system: ACHN renal
A498 renal = system: A498 renal
SF-295 CNS = system: SF-295 CNS
HCT-15 colon = system: HCT-15 colon
NCI-H23 lung = system: NCI-H23 lung
A549 NSCLC = system: A549 NSCLC
OVCAR-3 ovarian = system: OVCAR-3 ovarian
HCT-116 colon = system: HCT-116 colon
MDA-MB-231 breast = system: MDA-MB-231 breast
HOP-62 NSCLC = system: HOP-62 NSCLC
OVCAR-4 ovarian = system: OVCAR-4 ovarian
SF-268 CNS = system: SF-268 CNS
PC-3 prostate = system: PC-3 prostate
HL-60(TB) leukemia = system: HL-60(TB) leukemia
CAKI-1 renal = system: CAKI-1 renal
RPMI-8226 leukemia = system: RPMI-8226 leukemia
NCI-H460 NSCLC = system: NCI-H460 NSCLC
OVCAR-5 ovarian = system: OVCAR-5 ovarian
EKVX NSCLC = system: EKVX NSCLC
BT-549 breast = system: BT-549 breast
SW-620 colon = system: SW-620 colon
SF-539 CNS = system: SF-539 CNS
HT29 colon = system: HT29 colon
U251 glioblastoma = system: U251 glioblastoma
SNB-19 CNS = system: SNB-19 CNS
SN12C renal = system: SN12C renal
SK-MEL-28 melanoma = system: SK-MEL-28 melanoma
SK-OV-3 ovarian = system: SK-OV-3 ovarian
HCC-2998 colon = system: HCC-2998 colon
TK-10 renal = system: TK-10 renal

`CS(=O)(=O)c1ccc(C(=O)Nc2ccc(Cl)c(-c3ccccn3)c2)c(Cl)c1` showed a GI50 (CCRF-CEM leukemia) of 19.9 µM, a TGI (CCRF-CEM leukemia) of 50 µM and a GI50 (MDA-MB-435 melanoma) of over 62 µM. The TGI (MDA-MB-435 melanoma) was over 100 µM, the GI50 (COLO 205 colon) was 40.3 µM and the TGI (COLO 205 colon) was over 100 µM. For the same compound, the GI50 (NCI-H322M lung) was 67.2 µM, the TGI (NCI-H322M lung) was over 100 µM and the GI50 (UACC-257 melanoma) was 49.6 µM. For the same compound, the TGI (UACC-257 melanoma) was over 89.7 µM, the GI50 (NCI-H522 lung) was 46 µM and the TGI (NCI-H522 lung) was over 100 µM. For the same compound, the GI50 (SK-MEL-2 melanoma) was 33.8 µM, the TGI (SK-MEL-2 melanoma) was over 100 µM and the GI50 (NCI/ADR-RES ovarian) was 25.3 µM. For the same compound, the TGI (NCI/ADR-RES ovarian) was 71.7 µM, the GI50 (KM12 colon) was 17.9 µM and the TGI (KM12 colon) was over 56.7 µM. The GI50 (MDA-MB-468 breast) was 22.2 µM, the TGI (MDA-MB-468 breast) was 46.7 µM and the GI50 (T-47D breast) was 21.4 µM. The TGI (T-47D breast) was 59.7 µM, the GI50 (SR leukemia) was 29 µM and the TGI (SR leukemia) was 50.6 µM. It also gave a GI50 (HOP-92 NSCLC) of 31.2 µM, a TGI (HOP-92 NSCLC) of 79 µM and a GI50 (UO-31 renal) of 35.4 µM. For the same compound, the TGI (UO-31 renal) was over 80.3 µM, the GI50 (NCI-H226 lung) was 22.9 µM and the TGI (NCI-H226 lung) was 64.3 µM. It also gave a GI50 (SNB-75 CNS) of 32.3 µM, a TGI (SNB-75 CNS) of 80.3 µM and a GI50 (HS 578T breast) of 27.6 µM. For the same compound, the TGI (HS 578T breast) was over 84 µM, the GI50 (ACHN renal) was 35.6 µM and the TGI (ACHN renal) was over 81.7 µM. The GI50 (A498 renal) was 31.9 µM, the TGI (A498 renal) was over 71.7 µM and the GI50 (SF-295 CNS) was 33 µM. For the same compound, the TGI (SF-295 CNS) was over 67.7 µM, the GI50 (HCT-15 colon) was 26.2 µM and the TGI (HCT-15 colon) was over 70.8 µM. The GI50 (NCI-H23 lung) was over 61.2 µM, the TGI (NCI-H23 lung) was over 100 µM and the GI50 (A549 NSCLC) was 41.1 µM. It also gave a TGI (A549 NSCLC) of over 100 µM, a GI50 (OVCAR-3 ovarian) of 35.9 µM and a TGI (OVCAR-3 ovarian) of over 83 µM. For the same compound, the GI50 (HCT-116 colon) was 58.3 µM, the TGI (HCT-116 colon) was over 100 µM and the GI50 (MDA-MB-231 breast) was over 65.9 µM. For the same compound, the TGI (MDA-MB-231 breast) was over 100 µM, the GI50 (HOP-62 NSCLC) was 61.9 µM and the TGI (HOP-62 NSCLC) was over 100 µM. It also gave a GI50 (OVCAR-4 ovarian) of 32.6 µM, a TGI (OVCAR-4 ovarian) of over 84.5 µM and a GI50 (SF-268 CNS) of 45 µM. The TGI (SF-268 CNS) was over 100 µM, the GI50 (PC-3 prostate) was 55 µM and the TGI (PC-3 prostate) was over 100 µM. For the same compound, the GI50 (HL-60(TB) leukemia) was 19.6 µM, the TGI (HL-60(TB) leukemia) was 49.1 µM and the GI50 (CAKI-1 renal) was 36.6 µM. The TGI (CAKI-1 renal) was over 83.8 µM, the GI50 (RPMI-8226 leukemia) was 25 µM and the TGI (RPMI-8226 leukemia) was 61.5 µM. It also gave a GI50 (NCI-H460 NSCLC) of 30.8 µM, a TGI (NCI-H460 NSCLC) of over 70.3 µM and a GI50 (OVCAR-5 ovarian) of 54.2 µM. For the same compound, the TGI (OVCAR-5 ovarian) was over 100 µM, the GI50 (EKVX NSCLC) was 48.3 µM and the TGI (EKVX NSCLC) was over 90.5 µM. For the same compound, the GI50 (BT-549 breast) was 25.1 µM, the TGI (BT-549 breast) was 76.9 µM and the GI50 (SW-620 colon) was over 64 µM. For the same compound, the TGI (SW-620 colon) was over 100 µM, the GI50 (SF-539 CNS) was 49.1 µM and the TGI (SF-539 CNS) was over 100 µM. It also gave a GI50 (HT29 colon) of 18.3 µM, a TGI (HT29 colon) of 36.7 µM and a GI50 (U251 glioblastoma) of 49.5 µM. It also gave a TGI (U251 glioblastoma) of over 100 µM, a GI50 (SNB-19 CNS) of over 64.8 µM and a TGI (SNB-19 CNS) of over 100 µM. It also gave a GI50 (SN12C renal) of over 68.8 µM, a TGI (SN12C renal) of over 100 µM and a GI50 (SK-MEL-28 melanoma) of over 53.4 µM. The TGI (SK-MEL-28 melanoma) was over 100 µM, the GI50 (SK-OV-3 ovarian) was over 72.5 µM and the TGI (SK-OV-3 ovarian) was over 100 µM. It also gave a GI50 (HCC-2998 colon) of 24.6 µM, a TGI (HCC-2998 colon) of 56.8 µM and a GI50 (TK-10 renal) of over 52.9 µM. The TGI (TK-10 renal) was over 100 µM.
